Values of other authors as cited in patent US12071516B2, “Polymeric stabilizing formulations” (Nano Precision Medical, Inc., priority 2014, dated 2024).

In the case of `OCCN1CCN(CCCN2c3ccccc3Sc3ccc(C(F)(F)F)cc32)CC1` [Fluphenazine], the water solubility is listed as “limited water solubility”.
